Laboratory results as given in PubChem BioAssay (NCI).
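Cells were grown in 96-well plates and exposed to each compound for 48 hours at five concentrations; endpoints were interpolated linearly between bracketing concentrations, or set to the highest concentration if not reached. Here, GI50 denotes the concentration required for 50% inhibition of growth. Definition used: TGI = concentration required for complete inhibition of growth.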

Legend:
Assay in all cases: NCI anticancer screen, dose series, 48 h
[1] = test system: A498 renal
[2] = test system: UACC-257 melanoma
[3] = test system: SF-268 CNS
[4] = test system: HS 578T breast
[5] = test system: HT29 colon
[6] = test system: CCRF-CEM leukemia
[7] = test system: RXF 393 renal
[8] = test system: NCI-H522 lung
[9] = test system: K-562 leukemia
[10] = test system: MDA-MB-435
[11] = test system: LOX IMVI melanoma
[12] = test system: MCF7 breast
[13] = test system: NCI-H460 lung
[14] = test system: NCI-H226 lung
[15] = test system: SK-MEL-5 melanoma
[16] = test system: 786-0 renal
[17] = test system: MALME-3M melanoma
[18] = test system: EKVX NSCLC
[19] = test system: MOLT-4 leukemia
[20] = test system: RPMI-8226 leukemia
[21] = test system: ACHN renal
[22] = test system: TK-10 renal
[23] = test system: MDA-MB-231 breast
[24] = test system: SW-620 colon
[25] = test system: SK-MEL-28 melanoma
[26] = test system: HOP-62 NSCLC
[27] = test system: CAKI-1 renal
[28] = test system: SNB-19 CNS
[29] = test system: HOP-92 NSCLC
[30] = test system: IGROV1 ovarian
[31] = test system: OVCAR-5 ovarian
[32] = test system: SK-MEL-2 melanoma
[33] = test system: SK-OV-3 ovarian
[34] = test system: DU-145 prostate
[35] = test system: SN12C renal
[36] = test system: SR leukemia
[37] = test system: COLO 205 colon
[38] = test system: HCC-2998 colon
[39] = test system: HCT-15 colon
[40] = test system: PC-3 prostate
[41] = test system: UACC-62 melanoma
[42] = test system: KM12 colon
[43] = test system: OVCAR-3 ovarian
[44] = test system: HCT-116 colon
[45] = test system: UO-31 renal
[46] = test system: SF-295 CNS
[47] = test system: HL-60(TB) leukemia
[48] = test system: OVCAR-4 ovarian
[49] = test system: U251 CNS
[50] = test system: NCI-H23 lung
[51] = test system: T-47D breast
[52] = test system: SNB-75 CNS
[53] = test system: A549 NSCLC
[54] = test system: M14 melanoma
[55] = test system: SF-539 CNS
[56] = test system: OVCAR-8 ovarian
[57] = test system: NCI/ADR-RES ovarian

COc1ccc(Oc2nc3ccc(C(F)(F)F)cc3nc2-c2ccccc2)cc1
TGI [1]: > 100 µM | TGI [2]: > 100 µM | TGI [3]: > 100 µM | TGI [4]: > 100 µM | TGI [5]: > 100 µM | TGI [6]: > 100 µM | TGI [7]: > 100 µM | TGI [8]: > 100 µM | TGI [9]: > 100 µM | TGI [10]: > 100 µM | TGI [11]: > 100 µM | TGI [12]: > 100 µM | TGI [13]: > 100 µM | TGI [14]: > 100 µM | TGI [15]: > 100 µM | TGI [16]: > 100 µM | TGI [17]: > 100 µM | TGI [18]: > 100 µM | TGI [19]: > 100 µM | TGI [20]: > 100 µM | TGI [21]: > 100 µM | TGI [22]: > 100 µM | TGI [23]: > 100 µM | TGI [24]: > 100 µM | TGI [25]: > 100 µM | TGI [26]: > 100 µM | TGI [27]: > 100 µM | TGI [28]: > 100 µM | TGI [29]: > 100 µM | TGI [30]: > 100 µM | TGI [31]: > 100 µM | TGI [32]: > 100 µM | TGI [33]: > 100 µM | TGI [34]: > 100 µM | TGI [35]: > 100 µM | TGI [36]: > 100 µM | TGI [37]: > 100 µM | TGI [38]: > 100 µM | TGI [39]: > 100 µM | TGI [40]: > 100 µM | TGI [41]: > 100 µM | TGI [42]: > 100 µM | TGI [43]: > 100 µM | TGI [44]: > 100 µM | TGI [45]: > 100 µM | TGI [46]: > 100 µM | TGI [47]: > 100 µM | TGI [48]: > 100 µM | TGI [49]: > 100 µM

O=[N+]([O-])c1cc(O)c(O)cc1-c1cn2ccsc2n1
GI50 [1]: 25.3 µM | TGI [1]: 62.3 µM | GI50 [2]: > 100 µM | TGI [2]: > 100 µM | GI50 [3]: 66.1 µM | TGI [3]: > 100 µM | TGI [4]: 36 µM | GI50 [5]: 28.7 µM | TGI [5]: > 100 µM | GI50 [7]: > 100 µM | TGI [7]: > 100 µM | GI50 [50]: 67.5 µM | TGI [50]: > 100 µM | GI50 [8]: 33 µM | TGI [8]: > 100 µM | GI50 [51]: > 100 µM | TGI [51]: > 100 µM | GI50 [10]: 47.3 µM | TGI [10]: > 100 µM | GI50 [11]: 52 µM | TGI [11]: > 100 µM | GI50 [12]: 52.7 µM | TGI [12]: > 100 µM | GI50 [13]: 46.9 µM | TGI [13]: > 100 µM | GI50 [14]: 76.7 µM | TGI [14]: > 100 µM | GI50 [52]: > 100 µM | TGI [52]: > 100 µM | GI50 [15]: 16.3 µM | TGI [15]: 54.8 µM | GI50 [53]: 41.3 µM | TGI [53]: > 100 µM | GI50 [16]: 31 µM | TGI [16]: > 100 µM | GI50 [17]: > 100 µM | TGI [17]: > 100 µM | GI50 [18]: > 100 µM | TGI [18]: > 100 µM | GI50 [19]: 75.9 µM | TGI [19]: > 100 µM | GI50 [20]: 54.6 µM | TGI [20]: > 100 µM | GI50 [21]: 42.6 µM | TGI [21]: > 100 µM | GI50 [22]: 66.5 µM | TGI [22]: > 100 µM | GI50 [23]: 59.2 µM | TGI [23]: > 100 µM | GI50 [24]: 45.6 µM | TGI [24]: > 100 µM | GI50 [25]: 55.5 µM | TGI [25]: > 100 µM | GI50 [26]: 36.1 µM | TGI [26]: > 100 µM | GI50 [54]: 20 µM | TGI [54]: 57.7 µM | GI50 [27]: 38.4 µM | TGI [27]: > 100 µM | GI50 [28]: 91.1 µM | TGI [28]: > 100 µM | GI50 [29]: 97.2 µM | TGI [29]: > 100 µM | GI50 [30]: 32.4 µM | TGI [30]: > 100 µM | GI50 [31]: > 100 µM | TGI [31]: > 100 µM | GI50 [32]: 57.1 µM | TGI [32]: > 100 µM | GI50 [33]: > 100 µM | TGI [33]: > 100 µM | GI50 [34]: 17.2 µM | TGI [34]: > 100 µM | GI50 [35]: 85.6 µM | TGI [35]: > 100 µM | GI50 [55]: 71.1 µM | TGI [55]: > 100 µM | GI50 [36]: 41.3 µM | TGI [36]: > 100 µM | GI50 [37]: 75.2 µM | TGI [37]: > 100 µM | GI50 [38]: 43.7 µM | TGI [38]: > 100 µM | GI50 [56]: 52.5 µM | TGI [56]: > 100 µM | GI50 [39]: 38.5 µM | TGI [39]: > 100 µM | GI50 [40]: 63.4 µM | TGI [40]: > 100 µM | GI50 [57]: 50.6 µM | TGI [57]: > 100 µM | GI50 [41]: 54.2 µM | TGI [41]: > 100 µM | GI50 [42]: 40.4 µM | TGI [42]: > 100 µM | GI50 [43]: 23.6 µM | TGI [43]: 64 µM | GI50 [44]: 31.1 µM | TGI [44]: > 100 µM | GI50 [45]: 34.1 µM | TGI [45]: > 100 µM | GI50 [46]: 31.2 µM | TGI [46]: 91.3 µM | GI50 [48]: 69.7 µM | TGI [48]: > 100 µM | GI50 [49]: 77.1 µM | TGI [49]: > 100 µM
